According to patent US7045315B2, “Methods for modulating expression of exogenous genes in mammalian systems” (The Salk Institute for Biological Studies, priority 1998, dated 2006):

How the values were obtained:
Format in all cases: cell-based
VgEcR/RXR heterodimer = test: Assay for inducer effectiveness on the ecdysone-inducible expression system (E/GRE4-ΔMTV-Luc reporter, CV-1 cells); details: for ability to activate the expression system in the further presence of an RXR agonist: diacylhydrazine plus LG1000268 vs alone, FIG. 4
Protocol: CV-1 cells were maintained in DMEM supplemented with 10% fetal bovine serum. Transfections were performed using the Dotap transfection reagent (Boehringer Mannheim). All candidate inducers were dissolved in either ethanol or DMSO. Muristerone A (MurA) was used as a positive control for activation. All transfections were performed in triplicate.
The E/GRE4-ΔMTV-Luc plasmid is routinely used as a reporter. […] A CMX-β-gal reporter plasmid was included in the transfection as a control for transfection efficiency. Approximately 10 hours after transfection, the media was removed and replaced with fresh media containing varying concentrations of the putative inducers. Cells were exposed to candidate activators for 20–48 hours, then assayed for luciferase and β-galactosidase activity employing standard techniques. Luciferase values were normalized using β-galactosidase activity levels.

[1] = system: RXR and VpEcR heterodimer; test: Transient transfection reporter assay in CV-1 cells, RXR and VpEcR; details: 1 μM muristerone A, FIG. 1A
Protocol: (§1) CV-1 cells were maintained in DMEM supplemented with 10% Fetal Bovine Serum. Transient transfections were performed using DOTAP transfection reagent (Boehringer-Mannheim). Transfections using β-galactosidase as the reporter were assayed either by Galactolight luminescent assay (Tropix, Bedford, Mass.) or by standard liquid ONPG assay (Sigma, St. Louis, Mo). The values were normalized by co-transfection of CMX-luciferase. Transfections using luciferase as the reporter were assayed by standard techniques using luciferin and ATP. These values were normalized by co-transfection of CMX-β-galactosidase. Hormone treated cells were treated with ethanol, 50 μM Juvenile Hormone III (Sigma), 1 μM muristerone A (Zambon, Bresso, IT), or 1 μM dexamethasone (Sigma) unless otherwise noted.

[2] = target: T1, ecdysone receptor heterodimer with retinoid X receptor (RXR) (Drosophila melanogaster, UniProt P34021); test: Transient transfection reporter assay in CV-1 cells, USP replaced by RXR; details: 1 μM muristerone A, FIG. 1A
T1 construct: expressed in transfected cells; host or cells: CV-1 cells
T1 sequence (P34021 1-878): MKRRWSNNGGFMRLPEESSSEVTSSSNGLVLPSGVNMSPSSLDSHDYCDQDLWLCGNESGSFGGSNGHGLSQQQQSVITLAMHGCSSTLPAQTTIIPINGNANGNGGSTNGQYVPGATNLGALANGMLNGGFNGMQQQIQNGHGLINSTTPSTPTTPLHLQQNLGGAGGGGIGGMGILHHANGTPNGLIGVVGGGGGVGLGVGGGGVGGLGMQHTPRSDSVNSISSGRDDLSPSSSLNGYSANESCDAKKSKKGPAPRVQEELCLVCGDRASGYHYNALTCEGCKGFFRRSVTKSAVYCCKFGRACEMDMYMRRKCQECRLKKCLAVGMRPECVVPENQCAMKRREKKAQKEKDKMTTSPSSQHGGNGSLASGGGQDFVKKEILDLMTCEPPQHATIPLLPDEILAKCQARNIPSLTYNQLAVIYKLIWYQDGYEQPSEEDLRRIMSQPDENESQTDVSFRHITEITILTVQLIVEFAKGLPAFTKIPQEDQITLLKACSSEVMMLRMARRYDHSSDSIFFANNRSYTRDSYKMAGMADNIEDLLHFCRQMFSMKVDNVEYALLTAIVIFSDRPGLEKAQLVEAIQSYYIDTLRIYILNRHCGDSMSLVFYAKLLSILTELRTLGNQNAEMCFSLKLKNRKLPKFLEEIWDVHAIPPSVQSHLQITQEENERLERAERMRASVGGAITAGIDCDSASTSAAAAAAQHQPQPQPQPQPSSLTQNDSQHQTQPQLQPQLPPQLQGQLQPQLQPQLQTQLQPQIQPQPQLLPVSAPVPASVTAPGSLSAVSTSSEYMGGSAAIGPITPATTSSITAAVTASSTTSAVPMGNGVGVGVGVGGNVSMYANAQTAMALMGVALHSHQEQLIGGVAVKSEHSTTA
T1 sequence (P19793 1-462 partner): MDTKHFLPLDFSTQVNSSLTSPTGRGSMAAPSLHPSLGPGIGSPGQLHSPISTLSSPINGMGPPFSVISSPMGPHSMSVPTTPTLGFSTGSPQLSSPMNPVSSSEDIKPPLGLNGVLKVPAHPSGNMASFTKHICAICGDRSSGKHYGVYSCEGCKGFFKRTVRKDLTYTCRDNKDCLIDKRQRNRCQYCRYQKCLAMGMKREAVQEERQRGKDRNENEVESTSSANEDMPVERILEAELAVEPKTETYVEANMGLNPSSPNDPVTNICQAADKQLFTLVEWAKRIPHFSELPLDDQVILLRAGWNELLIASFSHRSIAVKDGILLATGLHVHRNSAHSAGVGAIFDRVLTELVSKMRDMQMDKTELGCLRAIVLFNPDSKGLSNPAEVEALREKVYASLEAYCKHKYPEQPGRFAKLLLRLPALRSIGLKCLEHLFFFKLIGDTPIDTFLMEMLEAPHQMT
Protocol: as §1
(§2) To maximize the sensitivity of the invention ecdysone inducible system, modifications of the ecdysone receptor were made. The N-terminal transactivation domain of the ecdysone receptor was replaced by the corresponding domain of the glucocorticoid receptor (GR), resulting in the modified ecdysone receptor GEcR (See FIG. 1D). CV-1 cells were transfected with the plasmid CMX-GEcR encoding the modified ecdysone receptor as discussed above. […]

[3] = target: T2, ecdysone receptor (EcR) with USP (Drosophila melanogaster, UniProt P34021); test: Transient transfection reporter assay in CV-1 cells, ecdysone receptor with USP; details: 1 μM muristerone A vs ethanol, unmodified ecdysone receptor, FIG. 1A
T2 construct: expressed in transfected cells; host or cells: CV-1 cells
T2 sequence (P34021 1-878): T1 sequence (P34021 1-878)
T2 sequence (P20153 1-508 partner): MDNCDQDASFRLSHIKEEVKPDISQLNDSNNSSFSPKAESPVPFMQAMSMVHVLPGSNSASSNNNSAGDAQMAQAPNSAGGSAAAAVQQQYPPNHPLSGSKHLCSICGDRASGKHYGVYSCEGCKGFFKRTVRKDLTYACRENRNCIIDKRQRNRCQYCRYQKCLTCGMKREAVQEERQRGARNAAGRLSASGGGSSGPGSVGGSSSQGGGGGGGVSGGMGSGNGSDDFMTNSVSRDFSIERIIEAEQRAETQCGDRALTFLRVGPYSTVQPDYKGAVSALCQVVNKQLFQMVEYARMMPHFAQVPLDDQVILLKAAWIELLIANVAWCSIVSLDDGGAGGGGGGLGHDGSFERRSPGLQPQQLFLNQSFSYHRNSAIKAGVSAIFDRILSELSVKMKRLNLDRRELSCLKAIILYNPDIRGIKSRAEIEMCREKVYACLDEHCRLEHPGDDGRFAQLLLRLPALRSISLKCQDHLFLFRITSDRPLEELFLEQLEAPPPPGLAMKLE
Protocol: as §1, §2

[4] = system: GEcR (modified ecdysone receptor); test: Transient transfection reporter assay in CV-1 cells, modified ecdysone receptor GEcR; details: 1 μM muristerone A vs ethanol; CV-1 cells transfected with CMX-GEcR; FIG. 1A
Protocol: as §1, §2

SMILES	ability to activate the expression system in the further presence of an RXR agonist (VgEcR/RXR heterodimer)	fold induction of reporter [1] [fold]	fold induction of reporter [2] [fold]	muristerone responsiveness (fold induction of reporter) [3] [fold]	muristerone responsiveness (fold induction of reporter) [4] [fold]	activation of the ecdysone-inducible system, combination with RXR ligand (VgEcR/RXR heterodimer; MurA concentration varied, LG1000268 constant 100 nM, FIG. 3)	activation of the ecdysone-inducible system, ligand alone (VgEcR/RXR heterodimer; ligand alone over several concentrations, luciferase normalized to β-galactosidase, FIG. 3)
Cc1cc(C)cc(C(=O)N(NC(=O)c2ccc3c(c2C)OCCO3)C(C)(C)C)c1 [N′-(3,5-dimethylbenzoyl)-N-(2-methyl-3,4-(ethylenedioxy)-benzoyl)-N′-(tert-butyl) hydrazine]	enhanced ability	–	–	–	–	–	–
CCc1ccc(C(=O)NN(C(=O)c2cc(C)cc(C)c2)C(C)(C)C)cc1 [N′-(3,5-dimethylbenzoyl)-N-(4-ethylbenzoyl)-N′-(tert-butyl) hydrazine]	enhanced ability	–	–	–	–	–	–
CC(C)CC[C@@H](O)[C@](C)(O)[C@H]1CC[C@@]2(O)C3=CC(=O)[C@]4(O)C[C@@H](O)[C@@H](O)C[C@]4(C)[C@H]3[C@H](O)C[C@]12C [muristerone A]	–	212	34	3	11	dramatically enhances the activation	effective inducer
